Source: PMC6123691, “Structural basis for promotion of duodenal iron absorption by enteric ferric reductase with ascorbate” (Communications Biology, 2018)

T1: duodenal cytochrome b (Dcytb) (Homo sapiens, UniProt Q53TN4)
T1 construct: gene CYBRD1; full-length Dcytb (residues 1–286); atomic model residues 6–230
T1 sequence (Q53TN4 1-286): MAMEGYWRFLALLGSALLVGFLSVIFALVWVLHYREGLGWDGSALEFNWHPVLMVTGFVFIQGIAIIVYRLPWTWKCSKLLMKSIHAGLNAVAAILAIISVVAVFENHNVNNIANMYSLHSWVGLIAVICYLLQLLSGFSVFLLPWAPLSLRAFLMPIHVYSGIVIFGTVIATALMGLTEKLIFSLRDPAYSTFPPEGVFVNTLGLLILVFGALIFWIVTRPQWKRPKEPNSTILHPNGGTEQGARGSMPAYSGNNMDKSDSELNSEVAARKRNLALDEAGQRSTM

B1: human duodenal cytochrome b (Dcytb) (enzyme, UniProt Q53TN4 1-286, looked up)
chain: T1 sequence (Q53TN4 1-286)
notes: human duodenal cytochrome b (Dcytb), member of the cytochrome b561 family, full-length, residues 1-286; codon-optimized gene; the atomic model includes only residues 6-230; A thrombin cleavage site stood between the protein and the C-terminal hexa-His tag (pET-21b(+)); after cleavage some residues of the site may remain at the C-terminus; Integral membrane protein, solubilised in DDM and …

Tests used:
[1] = target: T1, duodenal cytochrome b (Dcytb); test: X-ray crystal structure ([…] Å, soaked with […] sodium ascorbate and ZnSO4); stopped-flow heme reduction; assay type: binding
[2] = target: the molecule itself; test: crystal structure; lipidic cubic phase (monoolein) crystals, space group C2; substrate-free form at 2.6 Å and Zn2+/ascorbate-soaked form at 2.8 Å; the dimer is formed by crystallographic twofold symmetry

Molecule	X-ray crystal structure (2.8 Å, soaked with 1 M sodium ascorbate and ZnSO4); sto [1]	stoichiometry N [2]
O=C1O[C@H]([C@@H](O)CO)C(O)=C1O [Asc, ascorbate]	The electron density from one ascorbate molecule was observed on the cytoplasmic surface of Dcytb in proximity to the heme	–
B1	–	2
